Measurements as given in patent publication US20240391923A1, “METHIONINE ADENOSYLTRANSFERASE 2A INHIBITOR FOR TREATING MTAP DELETION-TYPE CANCER” (SUZHOU GENHOUSE BIO CO., LTD., priority 2022, published 2024).
Read-outs that look alike come from different tables or passages of the source.

Key:
hERG potassium current = biological target: T1, hERG potassium current (Homo sapiens, UniProt Q12809); experiment: hERG inhibition test (whole-cell patch clamp, Qpatch); format: cell-based; details: initial concentration 30 μM, 6 concentration points
T1 construct: expressed in transfected cells; host or cells: HEK293, cultured under G418 selection
Protocol: The BEK293 cells were cultured in a DiVEM medium containing […] and 0.8 mg/mL G418 at 37° C. with 5% o CO2. The cells were digested by TrypLE™ Express and centrifuged. The cell density was adjusted to 2×10^6 cells/mL. The cells were gently mixed for 15-20 min using a shaker equilibrated at room temperature, and subjected to patch clamping on a machine. The medium of the prepared cells was replaced with extracellular fluid. The intracellular fluid and the extracellular fluid were taken from the fluid pool, and respectively added to the intracellular fluid pool and the cell and the test substance pool of the QPlate chip. The voltage stimulation of the whole-cell hERG potassium current was recorded by the whole-cell patch clamp, and the test data was collected and stored by Qpatch. The compound was diluted 3-fold at an initial concentration of 30 μM, and 6 concentration points were set, with each drug concentration being set for two administrations over a period of at least 5 min. The current detected in compound-free extracellular fluid for each cell was served as its own control group, and the detection was repeated at least twice independently using two cells per concentration. All electrophysiological experiments were performed at room temperature.
For data analysis, the current acted for each drug concentration and the current of the blank control were standardized
and then the inhibition rate corresponding to each drug concentration was calculated
The mean and standard error were calculated for each concentration, and the half maximal inhibitory concentration of each compound was calculated:
The dose-dependent effect was fitted non-linearly using the above equation, wherein Y represents the inhibition rate, C represents the concentration of the test substance, IC50 is the half maximal inhibitory concentration, and HillSlope represents the Hill coefficient. Curve fitting and calculation of IC50 were performed by Graphpad software.

[1] = system: SDMA in HCT116-MTAP-knockout cell line; experiment: Cell symmetric dimethylarginine (SDMA) test, In-cell Western, HCT116-MTAP-knockout; format: cell-based; details: Homo sapiens, 96 h
[2] = Pharmacokinetic test in mice (IV and PO); format: in vivo; details: mouse, plasma, BALB/c mice; for half-life: read-out: T½ (converted)
[3] = system: SDMA in human colon cancer cell line HCT116; experiment: Cell symmetric dimethylarginine (SDMA) test, In-cell Western, HCT116 (MTAP wild-type); format: cell-based; details: Homo sapiens, HCT-116, 96 h
Summary of the method: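 HCT116 cells treated 4 days at 37° C with compound, top concentration 6 μM, 1:4 dilutions, 6 points, versus DMSO. Fixed cells stained for SDMA with DRAQ5 normalisation; 800/700 nm ratio after background subtraction fitted by non-linear regression for IC50.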

[4] = system: HCT116-MTAP wild-type (+/+)-cell strain; experiment: Tumor cell proliferation inhibition assay (CellTiter-Glo), HCT116-MTAP wild-type (+/+); format: cell-based; details: Homo sapiens, 120 h, HCT116-MTAP wild-type (+/+) cells, 5-day treatment
Summary of the method: (§1)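 Seed cells; 24 h later add compound (10 gradients, 1:3, max 10 μM; DMSO ctrl). Incubate 5 d, 37° C./5% CO2. Measure ATP via CellTiter-Glo.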

[5] = system: HCT116-MTAP-knockout (−/−) cell strain; experiment: Tumor cell proliferation inhibition assay (CellTiter-Glo), HCT116-MTAP-knockout (-/-); format: cell-based; details: Homo sapiens, 120 h, HCT116-MTAP-knockout (−/−) cells, 5-day treatment
Summary of the method: as §1

DOHH-2 cell strain = experiment: Tumor cell proliferation inhibition assay (CellTiter-Glo), DOHH-2; format: cell-based; details: Homo sapiens, 120 h, DOHH-2 cells, 5-day treatment
Protocol: After the HCT116-MTAP-knockout (−/−) cell strain, the HCT116-MTAP wild-type(+/+)-cell strain, the DOHH-2 cell strain, or the Hut-78 cell strain was treated with the test compound for 5 days, the ATP level was measured using a CellTiter-Glo kit of Promega to evaluate the inhibition of the test compound against the growth of the tumor cell strain.
In the present application, the HCT116-MTAP-knockout (−/−) cell strain, the HCT116-MTAP wild-type (+/+)-cell strain, the DOHH-2 cell strain, or the Hut-78 cell strain was seeded into a 96-well cell culture plate at an appropriate cell density. After 24 h, the cells were treated using the test compounds diluted 1:3 fold at the highest concentration of 10 μM for 10 gradients, and a DMSO treatment group was set up separately. The cells were cultured in a 37° C./5% CO2 incubator for 5 days.

[6] = Saturation solubility of samples in FaSSIF solution; format: physicochemical; details: FaSSIF pH 6.5, room temperature overnight
Protocol: About 0.21 g of sodium hydroxide, about 2.24 g of sodium dihydrogen phosphate dihydrate, and 3.09 g of sodium chloride were weighed out and dissolved in 500 mL of water, and then the pH was adjusted to 6.5 with 1 N sodium hydroxide or 1 N hydrochloric acid. 112 mg of FaSSIF solid was weighed out and placed in a 50 mL volumetric flask, and the above buffer was added for dissolution, diluted to volume, mixed well, and left to stand at room temperature for 2 h or more.
• Test sample: about 1 mg of the test sample was taken, and 1 mL of FaSSIF solution was added. The mixture was stirred at room temperature overnight and centrifuged, and the supernatant was collected and injected for analysis. • Control substance solution: about 1.5 mg of the test sample was precisely weighed out and placed in a 50 mL volumetric flask, and DMF was added for dissolution, diluted to volume, and mixed well.
• Mobile phase A: 1000 mL of purified water was accurately weighed out, 1 mL of formic acid was added, and the mixture was mixed well and degassed with ultrasonic. • Mobile phase B: acetonitrile
The peak of the main component of the control substance and the peak of the test substance consistent with the retention time of the peak of the main component of the control substance were integrated, and the concentration thereof in the FaSSIF solution was calculated according to external standard method.

[7] = biological target: MAT2A recombinant protein (Homo sapiens, UniProt P31153); experiment: MAT2A inhibitory activity (malachite green colorimetric enzyme assay); format: biochemical
Summary of the method: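 Recombinant human MAT2A with L-methionine and ATP in 50 mM HEPES pH 7.5, 50 mM KCl, 10 mM MgCl2, 10 mM DTT, 60 min at room temperature. Phosphate released detected by malachite green reagent (15 min) at 630 nm. Ten-point 1:3 series from 1000 nM final; IC50 by variable-slope non-linear regression.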

[8] = system: Human pancreatic cancer cells KP-4; experiment: Mouse xenograft tumor pharmacodynamic model, KP-4; format: in vivo; details: KP-4 xenograft, PO 200 mg/kg once a day, 29 days of administration
Protocol: (§2) In this example, the in vivo efficacy of the compound in a mouse xenograft tumor model after intragastric (PO) administration was tested.
Human pancreatic cancer cells KP-4 were cultured in monolayer in vitro under the condition of 1640 medium containing […] and […] and streptomycin, and the culture was carried out at 37° C. with 5% CO2. The cells were digested with trypsin three times a week for passaging. When the saturation degree of the cells was 80-90%, the cells were collected, counted and inoculated. 0.1 mL (5×10^6 cells) of KP-4 cells were subcutaneously inoculated on the right back of each mouse. On day 34 after inoculation of the cells, the mean tumor volume reached 154 mm^3. The mice were randomly grouped for administration and intragastrically dosed once daily. Changes in body weight and tumor volume were recorded. After 29 days of administration, the experiment was ended. Tumor volume changes and mouse body weight changes were counted and analyzed. AG270 (CAS: 2201056-66-6) was the positive control compound.

[9] = system: Human colorectal adenocarcinoma cells HCT116-MTAP-KO; experiment: Mouse xenograft tumor pharmacodynamic model, HCT116-MTAP-KO; format: in vivo; details: PO 200 mg/kg once a day, 28 days of administration
Protocol: as §2
Human colorectal adenocarcinoma cells HCT116-MTAP-KO were cultured in monolayer in vitro under the condition of McCoy's 5A medium containing 10% fetal bovine serum and 1% penicillin and streptomycin, and the culture was carried out at 37° C. with 5% CO2. The cells were digested with trypsin three times a week for passaging. When the saturation degree of the cells was 80-90%, the cells were collected, counted and inoculated. 0.1 mL (5×10^6 cells) of HCT116-MTAP-KO cells were subcutaneously inoculated on the right back of each mouse. On day 16 after inoculation of the cells, the mean tumor volume reached 154 mm^3. The mice were randomly grouped for administration and intragastrically dosed once daily. Changes in body weight and tumor volume were recorded. After a certain number of days of administration, the experiment was ended. Tumor volume changes and mouse body weight changes were counted and analyzed. AG270 (CAS: 2201056-66-6) was the positive control compound.

[10] = IC50 score, read-out: Tumor cell 5-day relative growth inhibition (HCT116-MTAP+/+) (nM), score
[11] = IC50 value, read-out: Tumor cell 5-day relative growth inhibition (HCT116-MTAP+/+)
[12] = IC50 score, read-out: Tumor cell 5-day relative growth inhibition (HCT116-MTAP−/−) (nM), score
[13] = IC50 value, read-out: Tumor cell 5-day relative growth inhibition (HCT116-MTAP−/−)

MAT2A recombinant protein, sequence (P31153 whole entry): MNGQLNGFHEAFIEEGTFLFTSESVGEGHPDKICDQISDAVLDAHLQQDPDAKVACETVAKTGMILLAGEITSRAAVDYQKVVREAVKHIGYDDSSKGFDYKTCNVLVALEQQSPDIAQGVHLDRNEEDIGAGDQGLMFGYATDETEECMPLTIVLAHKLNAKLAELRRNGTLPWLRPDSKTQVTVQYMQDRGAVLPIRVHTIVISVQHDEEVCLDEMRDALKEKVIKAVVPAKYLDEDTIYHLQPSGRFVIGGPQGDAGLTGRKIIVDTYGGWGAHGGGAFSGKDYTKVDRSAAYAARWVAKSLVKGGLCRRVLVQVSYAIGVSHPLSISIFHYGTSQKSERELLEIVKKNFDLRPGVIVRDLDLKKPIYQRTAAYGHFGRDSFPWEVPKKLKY
T1 sequence (Q12809 whole entry): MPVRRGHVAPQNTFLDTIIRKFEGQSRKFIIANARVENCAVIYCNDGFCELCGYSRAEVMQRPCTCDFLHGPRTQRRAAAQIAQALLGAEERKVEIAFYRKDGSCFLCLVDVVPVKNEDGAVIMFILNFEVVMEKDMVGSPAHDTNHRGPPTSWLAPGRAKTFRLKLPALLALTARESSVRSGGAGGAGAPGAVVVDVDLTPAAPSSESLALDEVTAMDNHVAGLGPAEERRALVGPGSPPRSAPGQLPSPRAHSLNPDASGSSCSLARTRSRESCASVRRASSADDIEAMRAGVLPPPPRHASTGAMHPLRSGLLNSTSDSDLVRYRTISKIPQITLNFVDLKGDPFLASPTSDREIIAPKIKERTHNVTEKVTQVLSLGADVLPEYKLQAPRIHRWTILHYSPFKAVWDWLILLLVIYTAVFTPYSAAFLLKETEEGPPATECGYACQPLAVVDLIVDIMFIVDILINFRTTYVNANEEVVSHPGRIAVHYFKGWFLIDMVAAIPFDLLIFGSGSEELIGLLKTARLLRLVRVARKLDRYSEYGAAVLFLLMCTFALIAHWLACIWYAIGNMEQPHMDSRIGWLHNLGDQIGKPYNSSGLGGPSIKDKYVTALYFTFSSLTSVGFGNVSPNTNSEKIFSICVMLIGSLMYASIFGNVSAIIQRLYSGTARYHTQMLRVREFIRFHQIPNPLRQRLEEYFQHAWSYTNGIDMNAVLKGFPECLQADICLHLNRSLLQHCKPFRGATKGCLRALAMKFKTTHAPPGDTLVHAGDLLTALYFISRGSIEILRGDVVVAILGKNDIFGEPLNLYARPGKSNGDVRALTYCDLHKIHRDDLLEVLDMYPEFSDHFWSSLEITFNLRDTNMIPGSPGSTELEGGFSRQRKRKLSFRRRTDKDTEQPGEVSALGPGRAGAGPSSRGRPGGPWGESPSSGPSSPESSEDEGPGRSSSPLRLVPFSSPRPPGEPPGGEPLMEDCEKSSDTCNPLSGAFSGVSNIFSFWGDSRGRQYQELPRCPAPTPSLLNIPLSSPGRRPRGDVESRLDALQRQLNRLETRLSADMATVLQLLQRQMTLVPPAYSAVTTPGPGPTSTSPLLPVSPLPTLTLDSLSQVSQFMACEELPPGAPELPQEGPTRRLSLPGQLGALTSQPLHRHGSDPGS

Question: Which results are given for `Cn1cc2c(n1)c(=O)n(-c1cccnc1)c1nc(C(F)(F)F)ccc21` [Compound B72]?
Answer: IC50 (hERG potassium current): > 30000 nM; IC50 ([1]; IC50 score class, read-out: Cell 96 h SDMA Inhibition (HCT116-MTAP−/−) (score)): < 200 nM; IC50 ([1]; read-out: Cell 96 h SDMA Inhibition (HCT116-MTAP−/−)): 76.9 nM; AUC ([2]; IV 2 mg/kg): 7.43 µM·h; clearance ([2]; IV 2 mg/kg): 12.8 mL/min/kg; half-life ([2]; IV 2 mg/kg): 46.8 min; Vd ([2]; IV 2 mg/kg, read-out: Vz): 0.9 L/kg; AUC ([2]; PO 10 mg/kg): 65 µM·h; half-life ([2]; PO 10 mg/kg): 57 min; IC50 ([3]; IC50 score class, read-out: Cell 96 h SDMA Inhibition (HCT116-MTAP+/+) (score)): 200 to 1000 nM; IC50 ([3]; read-out: Cell 96 h SDMA inhibition (HCT116-MTAP+/+)): 480 nM; IC50 [4, 10]: 500 to 2000 nM; IC50 [4, 11]: 1680 nM; IC50 [5, 12]: < 500 nM; IC50 [5, 13]: 138 nM; IC50 (DOHH-2 cell strain; IC50 score, read-out: Tumor cell 5-day relative growth inhibition (DOHH-2) (nM), score): 500 to 2000 nM; IC50 (DOHH-2 cell strain; IC50 value, read-out: Tumor cell 5-day relative growth inhibition (DOHH-2)): 640 nM

Question: Which “FaSSIF (pH = 6.5) (μg/mL)” value [6] does the source give for `Cn1cc2c(n1)c(=O)n(-c1ccc(OC(F)F)cc1)c1nc(C(F)(F)F)ccc21` [Compound B188] here?
Answer: The value was 7.4 μg/mL.

Question: What about the IC50 ([7]; IC50 score class, read-out: MAT2A Inhibition (score)) of the same compound?
Answer: Its IC50 is less than 100 nM.

Question: And the IC50 ([7]; read-out: MAT2A Inhibition)?
Answer: Its IC50 is 99.4 nM.

Question: And the IC50 [4, 10]?
Answer: Its IC50 is no less than 2000 nM.

Question: What about the IC50 [4, 11] of the same compound?
Answer: Its IC50 is greater than 10000 nM.

Question: And the IC50 [5, 12]?
Answer: Its IC50 is no less than 2000 nM.

Question: What about the IC50 [5, 13] of the same compound?
Answer: Its IC50 is greater than 10000 nM.

Question: Which “Tumor growth inhibition percentage (TGI)” value [8] does the source give for AG270 [reference compound] here?
Answer: Its value is “once a day TGI = 57.48%”.

Question: And the “Tumor growth inhibition percentage (TGI)” value [9]?
Answer: Its value is “once a day TGI = 33.82%”.
